Results: ChEMBL document CHEMBL4354838, “Synthesis and in Vitro and in Vivo Biological Evaluation of Tissue-Specific Bisthiazole Histone Deacetylase (HDAC) Inhibitors” (J Med Chem, 2020)

What was measured:
[1] = target: NAD-dependent protein deacetylase sirtuin-2 (Homo sapiens, UniProt Q8IXJ6)
Description: Inhibition of recombinant human N-terminal GST-tagged SIRT2 expressed in Escherichia coli using Ac-Arg-His-Lys-Lys(Ac)-AMC as susbtrate after 2 hrs by fluorescence based assay

[2] = target: NAD-dependent protein deacetylase sirtuin-3, mitochondrial (Homo sapiens, UniProt Q9NTG7)
Description: Inhibition of recombinant human N-terminal His-tagged SIRT3 expressed in Escherichia coli using Ac-Arg-His-Lys-Lys(Ac)-AMC as susbtrate after 2 hrs by fluorescence based assay

HT-29 [3] = type: functional, Homo sapiens; details: at 50 mg/kg
Description: Antitumor activity against human HT-29 cells xenografted in nude mouse assessed as reduction in tumor growth at 50 mg/kg, po qd for 21 days relative to control

[4] = target: NAD-dependent protein deacetylase sirtuin-1 (Homo sapiens, UniProt Q96EB6)
Description: Inhibition of recombinant human N-terminal GST-tagged SIRT1 expressed in Escherichia coli using Ac-Arg-His-Lys-Lys(Ac)-AMC as susbtrate after 1 hr by fluorescence based assay

MCF7 = assay: cells; type: functional, cell-based; details: Homo sapiens, MCF7, 72 h
Description: Antiproliferative activity against human MCF7 cells assessed as reduction in cell growth after 72 hrs

Histone deacetylase 1 = Histone deacetylase 1 (Homo sapiens, UniProt Q13547); assay: biochemical; type: cell-based
Description: Inhibition of recombinant His6/GST-tagged human HDAC1 expressed in baculovirus infected High5 insect cells using Ac-Lys-Tyr-Lys(epsilon-acetyl)-AMC as substrate after 24 hrs by fluorescence based assay

[5] = cynomolgus monkey, hepatocytes, 3 h, 3 µM
in vivo [6] = details: ICR, mouse, other tissue
[7] = dog, hepatocytes, 3 h, 3 µM
[8] = mouse, in vivo
in vivo [9] = details: ICR, mouse, po, 5 mg/kg
in vivo [10] = details: ICR, mouse, po, 5 mg/kg; remark: listed apart in the source
Description: Half life in ICR mouse at 5 mg/kg, po measured up to 24 hrs by LC-MS analysis

in vivo [11] = details: ICR, mouse, po, 5 mg/kg; remark: listed apart in the source
in vivo [12] = details: ICR, mouse, other tissue; remark: listed apart in the source
[13] = human, hepatocytes, 3 h, 3 µM
[14] = human, hepatocytes, 3 h, 3 µM; remark: listed apart in the source
[15] = cynomolgus monkey, hepatocytes, 3 h, 3 µM; remark: listed apart in the source
[16] = rat, hepatocytes, 3 h, 3 µM
[17] = mouse, in vivo, po, 50 mg/kg, 1 h
[18] = mouse, in vivo, po, 50 mg/kg, 1 h; remark: listed apart in the source
[19] = target: Polyamine deacetylase HDAC10 (Homo sapiens, UniProt Q969S8); assay: biochemical; type: cell-based
Description: Inhibition of recombinant human His6/GST-tagged HDAC10 expressed in baculovirus infected High5 insect cells using Ac-Lys-Tyr-Lys(epsilon-acetyl)-AMC as susbtrate after 24 hrs by fluorescence based assay

[20] = human, hepatocytes, 3 h, 3 µM; remark: listed apart in the source
HT-29 [21] = assay: cells; type: functional, cell-based; details: Homo sapiens, HT-29, 72 h
Description: Antiproliferative activity against human HT-29 cells assessed as reduction in cell growth after 72 hrs

MDA-MB-231 = assay: cells; type: functional, cell-based; details: Homo sapiens, MDA-MB-231, 72 h
Description: Antiproliferative activity against human MDA-MB-231 cells assessed as reduction in cell growth after 72 hrs

in vivo [22] = details: male, ICR, mouse, other tissue
in vivo [23] = details: ICR, mouse, po, 5 mg/kg; remark: listed apart in the source
Description: Mean residence time in ICR mouse at 5 mg/kg, po after 1 hr to 24 hrs by LC-MS analysis

NCI-H1975 = assay: cells; type: functional, cell-based; details: Homo sapiens, NCI-H1975, 72 h
Description: Antiproliferative activity against human NCI-H1975 cells assessed as reduction in cell growth after 72 hrs

[24] = mouse, in vivo; remark: listed apart in the source
EBC-1 = assay: cells; type: functional, cell-based; details: Homo sapiens, EBC-1, 72 h
Description: Antiproliferative activity against human EBC1 cells assessed as reduction in cell growth after 72 hrs

[25] = mouse, in vivo, po, 50 mg/kg, 6 h
[26] = rat, hepatocytes, 3 h, 3 µM; remark: listed apart in the source
in vivo [27] = details: ICR, mouse, other tissue; remark: listed apart in the source
in vivo [28] = details: ICR, mouse, iv, 2 mg/kg
[29] = mouse, in vivo, po, 50 mg/kg, 1 h; remark: listed apart in the source
in vivo [30] = details: female, ICR, mouse, other tissue
[31] = mouse, in vivo; remark: listed apart in the source
in vivo [32] = details: ICR, mouse, other tissue; remark: listed apart in the source
in vivo [33] = details: ICR, mouse, brain
in vivo [34] = details: ICR, mouse, iv, 2 mg/kg; remark: listed apart in the source
[35] = mouse, hepatocytes, 3 h, 3 µM
[36] = mouse, in vivo, po, 50 mg/kg, 1 h; remark: listed apart in the source
[37] = rat, hepatocytes, 3 h, 3 µM; remark: listed apart in the source
[38] = human, hepatocytes, 3 h, 3 µM; remark: listed apart in the source
[39] = mouse, in vivo, po, 50 mg/kg, 1 h; remark: listed apart in the source
Histone deacetylase 9 = Histone deacetylase 9 (Homo sapiens, UniProt Q9UKV0); assay: biochemical; type: cell-based, Sf9
Histone deacetylase 7 = Histone deacetylase 7 (Homo sapiens, UniProt Q8WUI4); assay: biochemical; type: cell-based, Sf9
[40] = mouse, hepatocytes, 3 h, 3 µM; remark: listed apart in the source
[41] = human, hepatocytes, 3 h, 3 µM; remark: listed apart in the source
HT-29 [42] = type: functional, Homo sapiens; details: at 100 mg/kg
Description: Antitumor activity against human HT-29 cells xenografted in nude mouse assessed as reduction in tumor growth at 100 mg/kg, po qd for 21 days relative to control

[43] = rat, hepatocytes, 3 h, 3 µM; remark: listed apart in the source
[44] = mouse, in vivo; remark: listed apart in the source
Histone deacetylase 5 = Histone deacetylase 5 (Homo sapiens, UniProt Q9UQL6); assay: biochemical; type: cell-based, Sf9
Description: Inhibition of recombinant N-terminal GST-tagged full length human HDAC5 expressed in baculovirus infected Sf9 cells using Ac-Leu-Gly-Lys(Tfa)-AMC as substrate after 24 hrs by fluorescence based assay

Histone deacetylase 2 = Histone deacetylase 2 (Homo sapiens, UniProt Q92769); assay: biochemical; type: cell-based
Description: Inhibition of recombinant human His6/GST-tagged HDAC2 expressed in baculovirus infected High5 insect cells using Ac-Lys-Tyr-Lys(epsilon-acetyl)-AMC as susbtrate after 24 hrs by fluorescence based assay

[45] = mouse, in vivo; remark: listed apart in the source
[46] = mouse, in vivo, po, 50 mg/kg, 1 h; remark: listed apart in the source
[47] = mouse, in vivo; remark: listed apart in the source
Histone deacetylase 4 = Histone deacetylase 4 (Homo sapiens, UniProt P56524); assay: biochemical; type: cell-based
Description: Inhibition of recombinant human His6/GST-tagged HDAC4 expressed in baculovirus infected High5 insect cells using Ac-Leu-Gly-Lys(Tfa)-AMC as substrate after 24 hrs by fluorescence based assay

[48] = mouse, hepatocytes, 3 h, 3 µM; remark: listed apart in the source
[49] = mouse, in vivo; remark: listed apart in the source
[50] = dog, hepatocytes, 3 h, 3 µM; remark: listed apart in the source
[51] = mouse, hepatocytes, 3 h, 3 µM; remark: listed apart in the source
[52] = dog, hepatocytes, 3 h, 3 µM; remark: listed apart in the source
in vivo [53] = details: ICR, mouse, po, 5 mg/kg; remark: listed apart in the source
[54] = mouse, hepatocytes, 3 h, 3 µM; remark: listed apart in the source
in vivo [55] = details: female, ICR, mouse, other tissue; remark: listed apart in the source
[56] = mouse, in vivo; remark: listed apart in the source
[57] = rat, hepatocytes, 3 h, 3 µM; remark: listed apart in the source
[58] = mouse, in vivo, po, 50 mg/kg, 1 h; remark: listed apart in the source
Histone deacetylase 11 = Histone deacetylase 11 (Homo sapiens, UniProt Q96DB2); assay: biochemical; type: cell-based
Description: Inhibition of recombinant human His6/GST-tagged HDAC11 expressed in baculovirus infected High5 insect cells using Ac-Lys-Tyr-Lys(epsilon-acetyl)-AMC as susbtrate after 24 hrs by fluorescence based assay

[59] = mouse, in vivo; remark: listed apart in the source
HT-29 [60] = type: functional, Homo sapiens; details: at 25 mg/kg
Description: Antitumor activity against human HT-29 cells xenografted in nude mouse assessed as reduction in tumor growth at 25 mg/kg, po qd for 21 days relative to control

[61] = mouse, in vivo, po, 50 mg/kg, 1 h; remark: listed apart in the source
Histone deacetylase 8 = Histone deacetylase 8 (Homo sapiens, UniProt Q9BY41); assay: biochemical; type: cell-based
Description: Inhibition of recombinant human His6/GST-tagged HDAC8 expressed in baculovirus infected High5 insect cells using Ac-Lys-Tyr-Lys(epsilon-acetyl)-AMC as susbtrate after 24 hrs by fluorescence based assay

T47D = assay: cells; type: functional, cell-based; details: Homo sapiens, 72 h
Description: Antiproliferative activity against human T47D cells assessed as reduction in cell growth after 72 hrs

in vivo [62] = details: ICR, mouse, iv, 2 mg/kg; remark: listed apart in the source
[63] = human, hepatocytes, 3 h, 3 µM; remark: listed apart in the source
in vivo [64] = details: ICR, mouse, iv, 2 mg/kg; remark: listed apart in the source
[65] = cynomolgus monkey, hepatocytes, 3 h, 3 µM; remark: listed apart in the source
[66] = mouse, in vivo; remark: listed apart in the source
[67] = cynomolgus monkey, hepatocytes, 3 h, 3 µM; remark: listed apart in the source
NCI-N87 = assay: cells; type: functional, cell-based; details: Homo sapiens, NCI-N87, 72 h
Description: Antiproliferative activity against human NCI-N87 cells assessed as reduction in cell growth after 72 hrs

[68] = mouse, in vivo, iv, 10 mg/kg
[69] = rat, hepatocytes, 3 h, 3 µM; remark: listed apart in the source
[70] = mouse, hepatocytes, 3 h, 3 µM; remark: listed apart in the source
[71] = cynomolgus monkey, hepatocytes, 3 h, 3 µM; remark: listed apart in the source
in vivo [72] = details: ICR, mouse, other tissue; remark: listed apart in the source
in vivo [73] = details: ICR, mouse, po, 5 mg/kg; remark: listed apart in the source
[74] = mouse, in vivo, iv, 10 mg/kg; remark: listed apart in the source
[75] = cynomolgus monkey, hepatocytes, 3 h, 3 µM; remark: listed apart in the source
Bel-7402 = assay: cells; type: functional, cell-based; details: Homo sapiens, Bel-7402, 72 h
Description: Antiproliferative activity against human Bel7402 cells assessed as reduction in cell growth after 72 hrs

[76] = mouse, in vivo, po, 50 mg/kg, 1 h; remark: listed apart in the source
[77] = dog, hepatocytes, 3 h, 3 µM; remark: listed apart in the source
[78] = mouse, in vivo, po, 50 mg/kg, 1 h; remark: listed apart in the source
[79] = dog, hepatocytes, 3 h, 3 µM; remark: listed apart in the source
[80] = dog, hepatocytes, 3 h, 3 µM; remark: listed apart in the source
[81] = mouse, in vivo; remark: listed apart in the source
in vivo [82] = details: ICR, mouse, other tissue; remark: listed apart in the source
[83] = mouse, in vivo, po, 50 mg/kg, 1 h; remark: listed apart in the source
in vivo [84] = details: ICR, mouse, po, 5 mg/kg; remark: listed apart in the source

Chain of Histone deacetylase 1 (Q13547 whole entry): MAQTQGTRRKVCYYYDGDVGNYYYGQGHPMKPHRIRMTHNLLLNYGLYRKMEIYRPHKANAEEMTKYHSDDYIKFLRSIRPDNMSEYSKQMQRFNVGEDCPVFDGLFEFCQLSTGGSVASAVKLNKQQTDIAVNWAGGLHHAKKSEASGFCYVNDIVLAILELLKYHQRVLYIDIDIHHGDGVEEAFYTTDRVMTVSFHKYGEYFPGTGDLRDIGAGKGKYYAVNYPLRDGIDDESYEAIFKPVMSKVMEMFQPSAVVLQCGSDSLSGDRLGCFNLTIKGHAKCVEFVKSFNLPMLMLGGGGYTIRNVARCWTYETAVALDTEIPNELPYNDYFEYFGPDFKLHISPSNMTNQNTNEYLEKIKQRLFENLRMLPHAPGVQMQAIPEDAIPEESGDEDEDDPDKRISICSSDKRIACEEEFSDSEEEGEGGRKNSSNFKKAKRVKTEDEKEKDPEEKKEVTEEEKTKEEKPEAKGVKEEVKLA
Chain of NAD-dependent protein deacetylase sirtuin-3, mitochondrial (Q9NTG7 whole entry): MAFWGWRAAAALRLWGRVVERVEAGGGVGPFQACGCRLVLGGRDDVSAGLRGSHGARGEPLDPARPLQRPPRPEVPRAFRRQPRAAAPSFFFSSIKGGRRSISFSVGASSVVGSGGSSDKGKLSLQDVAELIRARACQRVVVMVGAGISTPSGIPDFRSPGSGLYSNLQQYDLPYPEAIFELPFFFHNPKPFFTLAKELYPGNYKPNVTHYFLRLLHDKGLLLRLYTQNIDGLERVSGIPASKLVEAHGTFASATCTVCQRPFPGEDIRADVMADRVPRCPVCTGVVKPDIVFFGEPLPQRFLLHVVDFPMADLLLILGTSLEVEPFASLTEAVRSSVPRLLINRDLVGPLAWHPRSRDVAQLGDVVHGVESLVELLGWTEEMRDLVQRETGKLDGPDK
Chain of NAD-dependent protein deacetylase sirtuin-2 (Q8IXJ6 whole entry): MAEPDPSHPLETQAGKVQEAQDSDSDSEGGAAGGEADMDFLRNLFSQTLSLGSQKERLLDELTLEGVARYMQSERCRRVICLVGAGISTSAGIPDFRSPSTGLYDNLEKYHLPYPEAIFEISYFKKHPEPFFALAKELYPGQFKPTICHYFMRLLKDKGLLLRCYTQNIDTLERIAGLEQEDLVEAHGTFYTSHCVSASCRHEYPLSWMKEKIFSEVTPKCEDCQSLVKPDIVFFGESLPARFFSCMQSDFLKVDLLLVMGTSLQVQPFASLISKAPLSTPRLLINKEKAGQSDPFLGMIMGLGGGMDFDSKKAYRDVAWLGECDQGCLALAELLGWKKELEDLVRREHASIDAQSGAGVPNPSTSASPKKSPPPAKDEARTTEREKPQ
Chain of NAD-dependent protein deacetylase sirtuin-1 (Q96EB6 whole entry): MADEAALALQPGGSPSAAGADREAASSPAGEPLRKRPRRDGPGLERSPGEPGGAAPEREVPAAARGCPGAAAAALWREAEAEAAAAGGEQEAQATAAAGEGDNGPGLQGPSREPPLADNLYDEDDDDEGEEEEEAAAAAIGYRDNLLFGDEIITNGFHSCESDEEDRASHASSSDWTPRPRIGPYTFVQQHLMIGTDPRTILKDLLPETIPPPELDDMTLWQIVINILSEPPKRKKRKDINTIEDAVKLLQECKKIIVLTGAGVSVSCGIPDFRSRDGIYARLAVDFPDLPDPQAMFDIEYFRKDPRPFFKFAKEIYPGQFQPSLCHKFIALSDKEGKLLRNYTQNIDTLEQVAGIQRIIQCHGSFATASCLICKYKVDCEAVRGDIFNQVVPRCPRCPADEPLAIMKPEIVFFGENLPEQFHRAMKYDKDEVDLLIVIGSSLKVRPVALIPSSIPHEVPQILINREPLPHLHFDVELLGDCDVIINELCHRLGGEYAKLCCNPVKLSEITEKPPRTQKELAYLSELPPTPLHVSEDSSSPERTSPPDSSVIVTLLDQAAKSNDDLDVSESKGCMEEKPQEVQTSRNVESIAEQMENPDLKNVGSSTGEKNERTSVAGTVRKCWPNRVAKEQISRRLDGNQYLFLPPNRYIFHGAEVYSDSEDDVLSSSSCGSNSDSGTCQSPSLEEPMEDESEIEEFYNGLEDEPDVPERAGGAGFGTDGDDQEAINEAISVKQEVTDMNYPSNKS
Chain of Histone deacetylase 7 (Q8WUI4 whole entry): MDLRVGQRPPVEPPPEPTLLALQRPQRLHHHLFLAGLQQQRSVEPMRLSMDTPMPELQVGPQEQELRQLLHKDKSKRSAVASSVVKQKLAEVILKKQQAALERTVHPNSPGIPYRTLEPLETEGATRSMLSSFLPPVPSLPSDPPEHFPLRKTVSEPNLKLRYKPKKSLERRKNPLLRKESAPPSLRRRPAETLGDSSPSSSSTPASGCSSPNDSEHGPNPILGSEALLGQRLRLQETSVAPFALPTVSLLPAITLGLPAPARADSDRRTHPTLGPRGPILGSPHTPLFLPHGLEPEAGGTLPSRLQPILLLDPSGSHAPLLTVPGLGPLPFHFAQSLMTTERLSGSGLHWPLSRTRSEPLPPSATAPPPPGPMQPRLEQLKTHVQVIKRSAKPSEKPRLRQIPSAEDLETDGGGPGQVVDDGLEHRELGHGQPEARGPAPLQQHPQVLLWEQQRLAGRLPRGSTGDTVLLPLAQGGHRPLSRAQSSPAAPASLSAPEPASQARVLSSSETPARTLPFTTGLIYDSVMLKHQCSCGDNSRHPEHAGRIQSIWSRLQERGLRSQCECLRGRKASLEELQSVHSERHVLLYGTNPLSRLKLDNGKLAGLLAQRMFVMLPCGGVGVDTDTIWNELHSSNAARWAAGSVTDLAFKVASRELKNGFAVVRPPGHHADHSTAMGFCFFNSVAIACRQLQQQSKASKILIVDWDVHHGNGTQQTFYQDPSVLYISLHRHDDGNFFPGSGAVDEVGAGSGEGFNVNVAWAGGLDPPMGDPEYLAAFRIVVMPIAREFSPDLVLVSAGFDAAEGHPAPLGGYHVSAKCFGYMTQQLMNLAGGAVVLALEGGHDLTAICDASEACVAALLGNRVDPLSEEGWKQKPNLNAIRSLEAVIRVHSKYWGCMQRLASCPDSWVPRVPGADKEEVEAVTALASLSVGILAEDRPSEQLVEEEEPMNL
Chain of Polyamine deacetylase HDAC10 (Q969S8 whole entry): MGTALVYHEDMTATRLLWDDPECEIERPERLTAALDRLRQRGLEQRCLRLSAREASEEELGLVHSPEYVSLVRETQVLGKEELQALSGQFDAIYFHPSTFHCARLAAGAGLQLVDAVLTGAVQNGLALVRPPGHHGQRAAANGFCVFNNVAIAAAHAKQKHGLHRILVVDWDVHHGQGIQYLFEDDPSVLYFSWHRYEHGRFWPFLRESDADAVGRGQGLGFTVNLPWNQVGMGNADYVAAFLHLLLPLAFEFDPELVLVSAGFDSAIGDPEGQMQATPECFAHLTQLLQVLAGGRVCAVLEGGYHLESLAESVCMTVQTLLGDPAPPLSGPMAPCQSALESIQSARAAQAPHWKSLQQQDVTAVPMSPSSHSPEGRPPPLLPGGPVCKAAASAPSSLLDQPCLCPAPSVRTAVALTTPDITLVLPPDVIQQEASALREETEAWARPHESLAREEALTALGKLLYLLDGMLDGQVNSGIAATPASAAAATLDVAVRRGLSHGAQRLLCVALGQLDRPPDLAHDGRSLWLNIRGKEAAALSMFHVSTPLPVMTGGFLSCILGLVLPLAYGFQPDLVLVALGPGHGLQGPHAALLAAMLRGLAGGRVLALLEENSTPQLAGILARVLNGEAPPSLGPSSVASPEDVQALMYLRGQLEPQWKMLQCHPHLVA
Chain of Histone deacetylase 11 (Q96DB2 whole entry): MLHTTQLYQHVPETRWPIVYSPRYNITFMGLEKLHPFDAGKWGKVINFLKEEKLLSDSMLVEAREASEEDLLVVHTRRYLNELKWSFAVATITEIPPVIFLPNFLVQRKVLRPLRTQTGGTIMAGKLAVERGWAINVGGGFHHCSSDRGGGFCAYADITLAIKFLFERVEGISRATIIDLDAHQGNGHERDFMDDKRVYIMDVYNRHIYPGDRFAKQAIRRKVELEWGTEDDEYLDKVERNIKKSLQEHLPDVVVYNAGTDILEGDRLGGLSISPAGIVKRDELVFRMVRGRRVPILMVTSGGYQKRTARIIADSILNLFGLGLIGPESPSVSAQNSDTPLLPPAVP
Chain of Histone deacetylase 8 (Q9BY41 whole entry): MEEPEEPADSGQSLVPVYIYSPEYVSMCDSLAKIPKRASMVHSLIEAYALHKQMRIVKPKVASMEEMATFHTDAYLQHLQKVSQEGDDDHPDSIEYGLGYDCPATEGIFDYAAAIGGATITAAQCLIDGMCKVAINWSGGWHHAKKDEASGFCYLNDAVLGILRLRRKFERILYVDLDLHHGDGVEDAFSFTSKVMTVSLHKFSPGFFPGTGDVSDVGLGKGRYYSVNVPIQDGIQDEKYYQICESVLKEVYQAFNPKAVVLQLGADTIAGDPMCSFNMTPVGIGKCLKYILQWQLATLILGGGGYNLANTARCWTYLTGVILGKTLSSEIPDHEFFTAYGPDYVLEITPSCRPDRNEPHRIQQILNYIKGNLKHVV
Chain of Histone deacetylase 2 (Q92769 whole entry): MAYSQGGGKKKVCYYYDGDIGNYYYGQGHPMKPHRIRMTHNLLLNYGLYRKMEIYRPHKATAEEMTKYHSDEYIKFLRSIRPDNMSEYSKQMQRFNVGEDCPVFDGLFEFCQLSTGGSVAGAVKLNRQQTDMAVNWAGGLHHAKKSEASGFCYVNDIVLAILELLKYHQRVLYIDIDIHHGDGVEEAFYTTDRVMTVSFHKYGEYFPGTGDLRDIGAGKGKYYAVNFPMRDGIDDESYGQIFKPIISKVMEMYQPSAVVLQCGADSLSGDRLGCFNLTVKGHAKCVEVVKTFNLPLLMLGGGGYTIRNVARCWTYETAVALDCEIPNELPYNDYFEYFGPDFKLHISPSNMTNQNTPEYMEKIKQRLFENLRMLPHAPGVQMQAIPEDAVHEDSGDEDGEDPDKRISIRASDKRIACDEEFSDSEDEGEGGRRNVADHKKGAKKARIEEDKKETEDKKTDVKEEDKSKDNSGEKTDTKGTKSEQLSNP

Structure (SMILES): Cc1[nH]c2ccccc2c1CCNCc1ccc(/C=C/C(=O)NO)cc1 [PANOBINOSTAT]
- IC50 [1]: > 20000 nM
- IC50 [2]: > 20000 nM
- T/C (HT-29 [3]): 93.85%
- IC50 [4]: > 20000 nM
- IC50 (MCF7): 9 nM

Structure (SMILES): CC(C)(NC(=O)c1nc(-c2nccs2)sc1C1CC1)c1ccc(C(=O)NO)cc1
- IC50 (Histone deacetylase 1): 163 nM

Structure (SMILES): CC(C)Cc1sc(-c2nccs2)nc1C(=O)Nc1ccc(/C=C/C(=O)NO)cc1
- IC50 (Histone deacetylase 1): 660 nM

Structure (SMILES): C[C@H](NC(=O)c1nc(-c2ncc(-c3ccccc3)s2)sc1C1CC1)c1ccc(C(=O)NO)cc1
- Drug metabolism [5]: Metabolite_Notdetected
- Kp (in vivo [6]): 7.84
- Drug metabolism [7]: Metabolite_Detected
- AUC [8]: 5185 ng·h/g
- bioavailability (in vivo [9]): 34 to 34.4%
- half-life at 24 h (in vivo [10]): 4.23 h
- Tmax at 24 h (in vivo [11]): 0.67 h
- Kp (in vivo [12]): 5.74
- Drug metabolism [13]: Metabolite_Notdetected
- Drug metabolism [14]: Metabolite_Detected
- Drug metabolism [15]: Metabolite_Detected
- Drug metabolism [16]: Metabolite_Detected
- Drug uptake [17]: Active
- Drug uptake [18]: Active
- IC50 [1]: > 20000 nM
- IC50 [19]: 1.98 nM
- Drug metabolism [20]: Metabolite_Detected
- IC50 (HT-29 [21]): 166 nM
- IC50 (MDA-MB-231): 76.6 nM
- Kp (in vivo [22]): 2.46
- MRT (in vivo [23]): 5.22 h
- IC50 [2]: > 20000 nM
- IC50 (NCI-H1975): 66.4 nM
- AUC [24]: 4692 ng·h/g
- IC50 (EBC-1): 110 nM
- Drug uptake [25]: Active
- Drug metabolism [26]: Metabolite_Detected
- Kp (in vivo [27]): 176
- AUC(0-inf) (in vivo [28]): 1250 ng·h/mL
- Drug uptake [29]: Active
- Kp (in vivo [30]): 4.38
- AUC [31]: 8795 ng·h/g
- Kp (in vivo [32]): 14.7
- Kp (in vivo [33]): 1.17
- half-life (in vivo [34]): 8.67 h
- Drug metabolism [35]: Metabolite_Detected
- Drug uptake [36]: Active
- Drug metabolism [37]: Metabolite_Detected
- Drug metabolism [38]: Metabolite_Detected
- Drug uptake [39]: Active
- IC50 (Histone deacetylase 9): > 20000 nM
- IC50 (Histone deacetylase 7): > 20000 nM
- Drug metabolism [40]: Metabolite_Detected
- Drug metabolism [41]: Metabolite_Notdetected
- T/C (HT-29 [42]): 37.56%
- Drug metabolism [43]: Metabolite_Notdetected
- AUC [44]: 698 ng·h/g
- IC50 (Histone deacetylase 5): 16700 nM
- IC50 (Histone deacetylase 2): 13.3 nM
- AUC [45]: 1472 ng·h/g
- Drug uptake [46]: Active
- AUC [47]: 6079 ng·h/g
- T/C (HT-29 [3]): 59.72%
- IC50 (Histone deacetylase 4): > 20000 nM
- Drug metabolism [48]: Metabolite_Detected
- AUC [49]: 3438 ng·h/g
- Drug metabolism [50]: Metabolite_Detected
- Drug metabolism [51]: Metabolite_Notdetected
- Drug metabolism [52]: Metabolite_Notdetected
- AUC(0-inf) (in vivo [53]): 944 ng·h/mL
- IC50 [4]: > 20000 nM
- Drug metabolism [54]: Metabolite_Detected
- Kp (in vivo [55]): 3.28
- AUC [56]: 2622 ng·h/g
- Drug metabolism [57]: Metabolite_Detected
- Drug uptake [58]: Active
- IC50 (Histone deacetylase 11): 77.8 nM
- AUC [59]: 1964 ng·h/g
- T/C (HT-29 [60]): 60.58%
- Drug uptake [61]: Active
- IC50 (Histone deacetylase 8): 16.8 nM
- IC50 (T47D): 40.8 nM
- MRT (in vivo [62]): 10.4 h
- Drug metabolism [63]: Metabolite_Detected
- AUC(0-t) (in vivo [64]): 1080 ng·h/mL
- Drug metabolism [65]: Metabolite_Notdetected
- AUC [66]: 599 ng·h/g
- Drug metabolism [67]: Metabolite_Detected
- IC50 (NCI-N87): 28.3 nM
- Drug uptake [68]: Active
- Drug metabolism [69]: Metabolite_Notdetected
- Drug metabolism [70]: Metabolite_Notdetected
- Drug metabolism [71]: Metabolite_Detected
- Kp (in vivo [72]): 8.66
- Cmax (in vivo [73]): 138 ng/mL
- Drug uptake [74]: Active
- Drug metabolism [75]: Metabolite_Detected
- IC50 (Bel-7402): 80.8 nM
- Drug uptake [76]: Active
- Drug metabolism [77]: Metabolite_Detected
- Drug uptake [78]: Active
- Drug metabolism [79]: Metabolite_Notdetected
- Drug metabolism [80]: Metabolite_Detected
- AUC [81]: 105642 ng·h/g
- Kp (in vivo [82]): 10.2
- IC50 (MCF7): 58.5 nM
- Drug uptake [83]: Active
- AUC(0-t) (in vivo [84]): 924 ng·h/mL

Structure (SMILES): O=C(NO)c1ccc(C2(NC(=O)c3nc(-c4nccs4)sc3C3CC3)CC2)cc1
- IC50 (Histone deacetylase 1): 22.3 nM
